Test results from patent publication US8486464B2, “Herbal composition for angina pectoris, method to prepare same and uses thereof” (Tasly Pharmaceutical Group Co. Ltd., priority 2000, dated 2013).

What was measured:
[1] = test system: coronary heart disease and angina; experiment: Clinical summary: coronary heart disease and angina (Table 1-1); type: in vivo, human; settings: Affiliated Hospital Anhui College of TCM, 46 cases
Description: After DSP came onto the market in China, a large-scale clinical research project was conducted in China. Although different prescriptions were used in different research projects, all conclusions are written according to “Method of DSP clinic study.” All clinical and experimental markers were standardized. A simplified summary of the results is shown below in Table 1-1.

[2] = test system: angina caused by coronary heart disease; experiment: Senior group angina, DSP vs Nifedipine
Description: • 1.1 Subjects. […] Medications were taken for 30 days. Patients in both groups used Yongbaoling spray under their tongues during acute onset of symptoms. […] Onset frequency, duration, number of times Yongbaoling was sprayed each day, 12-lead ECG, blood pressure, heartbeat, normal blood urea, liver and kidneys function, and lipoproteins in blood and blood viscosity both before and after treatment. • 1.4 Statistical analysis. The results were measured by t statistic testing, calculated by x^2 statistic testing. • 2. Confirmation of results. Onset frequency and duration with a decrease of 80% or more was regarded as obvious efficacy. A decrease of 50% or more was regarded as efficacy. A decrease of 50% or less was regarded as a failure. Changes in NST and ΣST before and after treatment were used to observe ECG improvement. NST represented the low-pressure 12-lead numbers in section ST; ΣST represented the sum of all low pressure numbers in section ST of 12-lead. Results

non-symptomatic M-IR = experiment: Non-symptomatic M-IR, DSP vs Nifedipine; type: in vivo, human; settings: for Efficacy (Number) / Obvious Efficacy (Number): n = 52
Excerpt: 1. Clinical sample. 52 patients were in the treatment group, which included 39 patients with coronary heart disease, and 4 patients with M-IR, and 9 patients with positive results on the exercise test. There were 38 males and 14 females. 52 patients were in the control group, which included 43 patients with coronary heart disease, 6 patients with M-IR, and 3 patients with positive results on the exercise test. There were 34 males and 18 females (Both groups followed the WHO M-IR-Related Heart Disease and Standard established in 1979).
2. Method of treatment. DSP was given to the treatment group, 10 tablets/medication, 3 times/day. […] Both medications lasted for 4 weeks, and all medications related to the treatment of M-IR were stopped.
3. Result standard. Efficient: Change of ECG ST-T was close to normal; Better: Decreased section ST rose 0.5 mm or more, transverse wave T changed to vertical ones, inverted wave changed 25% or more, conducting resistance was improved; Failure: There was no difference in ECGs before and after treatment.

[3] = clinical results after 30 days, cases (%)

SMILES: COC(=O)C1=C(C)NC(C)=C(C(=O)OC)C1c1ccccc1[N+](=O)[O-] [Nifedipine]
- Clinical efficacy % [1]: Nifedipine(32; 75%;
- ECG-Efficacy % [1]: 43.8%)
- Side-effects: felt pain ([2]; 20 patients, 30 days): 3 patients
- Side-effects: slow heartbeat ([2]; 20 patients, 30 days): 1 patients
- Side-effects: swollen ankles ([2]; 20 patients, 30 days): 2 patients
- NST ([2]; after treatment): 3.90 ± 1.13
- Number of Yongbaoling sprays per day ([2]; after treatment): 2.2 ± 0.8
- NST ([2]; before treatment): 4.20 ± 1.25
- Number of Yongbaoling sprays per day ([2]; before treatment): 3.21 ± 1.1
- Total efficacy, % ([2]; clinical results after 30 days): 60%
- Efficacy [2, 3]: 4 (20.00) %
- Failure [2, 3]: 8 (40.00) %
- Obvious Efficacy [2, 3]: 8 (40.00) %
- Efficacy (%) (non-symptomatic M-IR; 1st week): 25.0%
- Efficacy (Number) (non-symptomatic M-IR; 1st week): 5
- Obvious Efficacy (Number) (non-symptomatic M-IR; 1st week): 8
- Efficacy (%) (non-symptomatic M-IR; 2nd week): 30.8%
- Efficacy (Number) (non-symptomatic M-IR; 2nd week): 6
- Obvious Efficacy (Number) (non-symptomatic M-IR; 2nd week): 10
- Efficacy (%) (non-symptomatic M-IR; 3rd week): 34.6%
- Efficacy (Number) (non-symptomatic M-IR; 3rd week): 7
- Obvious Efficacy (Number) (non-symptomatic M-IR; 3rd week): 11
- Efficacy (%) (non-symptomatic M-IR; 4th week): 38.5%
- Efficacy (Number) (non-symptomatic M-IR; 4th week): 8
- Obvious Efficacy (Number) (non-symptomatic M-IR; 4th week): 12
